# In patent US10259809B2, “Fluorinated imidazo[4,5-C]quinoline derivatives as inhibitors of bromodomain containing proteins” (Trillium Therapeutics Inc., priority 2015, dated 2019):
# Columns and labels:
# GBM cell = conditions: in vitro and in vivo; cited from earlier work
# [1] = Liver microsome stability, mouse; type: in vitro ADME, mouse (CD-1; conditions: male, CD-1, mouse, pooled mouse liver microsomes, 1 μM compound, 0.5 mg/ml microsomes, 37° C., read-out: % recovery Mouse Liver Microsomes (MLM) (30 min)
# Experimental: (§1) Working stocks were initially diluted to a concentration of 40.0 μM in 0.1 M potassium phosphate buffer before addition to the reaction vials. Pooled mouse (CD-1, male) or human (50 donors) liver microsomes were utilized at a final concentration of 0.5 mg/ml. Duplicate wells were used for each time point (0 and 30 minutes). Reactions were carried out at 37° C. in a shaker, and the final concentration of DMSO was kept constant at 0.01%. The final volume for each reaction was 100 μL, which includes the addition of an NADPH-Regeneration solution (NRS) mix. This NRS mix was comprised of glucose 6-phosphate dehydrogenase (0.4 U/mL), NADP+ (1.3 mM), MgCl2 (3.3 mM), and glucose 6-phosphate (3.3 mM) in assay mixtures. Upon completion of the 30 minute time point, reactions were terminated by the addition of 1.5-volumes (150 μL) of ice-cold, acetonitrile with 0.5% formic acid and internal standard. Samples were then centrifuged at 4,000 rpm for 10 minutes to remove debris and precipitated protein. Approximately 150 μL of supernatant was subsequently transferred to a new 96 well microplate for LC/MS analysis.
# (§2) Narrow-window mass extraction LC/MS analysis was performed for all samples using a Waters Xevo quadrupole time-of-flight (QTof) mass spectrometer and an ACQUITY UPLC system, to determine relative peak areas of parent compound.
# BRD3-1: Domain 1 of BRD3 = biological target: T1, BRD3-1: Domain 1 of BRD3 (Homo sapiens, UniProt Q15059); test: Bromodomain binding assay (Example 6), BRD3-1
# T1 construct: BRD3-1: Domain 1 of BRD3
# Experimental: (§3) The binding of the compounds of the application to bromodomains BRD2, BRD3 and BRD4 was assessed using a time resolved fluorescent resonance energy transfer binding assay (Alpha Screen Technology), that measures the binding of an acetylated histone peptide to the bromodomain protein.
# (§4) The bromodomain protein, histone peptide and a variable concentration of test compound were incubated together to reach thermodynamic equilibrium.
# [2] = system: MM.1S subcutaneous human multiple myeloma xenograft; test: MM.1S subcutaneous human multiple myeloma xenograft model, efficacy; type: in vivo, NOD SCID mice
# Experimental: • Species & Strain: NOD SCID mice • Age: 7-8 week • Total Number: 50 mice plus 40% spare • Sex: Female • Body Weight: 18 to 22 g Animal Maintenance
# Groups and treatments started when the mean tumor volume reached about 100-150 mm^3. Based on the tumor volume, mice were randomly assigned to respective groups using a computer-generated randomization procedure.
# Each mouse was inoculated subcutaneously on the right flank with MM.1S tumor cells (5×10^6) in 0.1 ml of RPMI-1640 without serum (mixed matrigel) for tumor development. The treatment started when the mean tumor size reached approximately 100-150 mm^3. Mice were then randomized into groups.
# The measurement of tumor size was conducted twice weekly with a caliper and the tumor volume (mm^3) was estimated using the formula: TV=a×b^2/2, where “a” and “b” are long and short diameters of a tumor, respectively. The TVs were used for calculation of the tumor growth inhibition (TGI, an indicator of antitumor effectiveness) value using the formula: TGI=(1−T/C)×100%, where “T” and “C” is the mean relative volumes (% tumor growth) of the tumors in the treated and the control groups, respectively, on a given day after tumor inoculation. The experiment terminated when the mean tumor volume exceeded 2000 mm^3 or severe body weight loss was observed.
# BRD4-FL = biological target: T2, BRD4-FL (Homo sapiens, UniProt O60885); test: BET Bromodomain AlphaScreen assay (Example 9), BRD4-FL; type: binding
# T2 construct: BRD4-FL: Full length BRD4
# Experimental: (§5) The reader assay was a binding assay using the AlphaScreen technology fluorescence energy resonance transfer (FRET) assay. The biotinylated peptide binding to the reader domain of His-tagged protein is monitored by the singlet oxygen transfer from the Streptavidin-coated donor beads to the AlphaScreen Ni-chelate acceptor beads.
# (§6) Reaction buffer: 50 mM Hepes, pH7.5, 100 mM NaCl, 0.05% CHAPS, 0.1% BSA, and 1% DMSO (Buffer and DMSO concentration may be different for different reader).
# (§7) Biotin-peptide; sequences were different for different targets.
# (§8) Reaction Procedure: • 1. Deliver 4× BRD in wells of reaction plate except No BRD control wells. Add buffer instead. • 2. Deliver compounds in 100% DMSO into the BRD mixture by Acoustic technology (Echo550; nanoliter range). Spin down and pre-incubation for 30 min. • 3. Deliver 4× Ligand. Spin and shake. • 4. Incubate for 30 min at room temperature with gentle shaking. • 5. Deliver 4× donor beads. Spin and shake. • 6. Deliver 4× acceptor beads. Spin and shake. Then gentle shaking in the dark for 60 min. • 7.
# [3] = biological target: T3, BRD4-FL: Full length BRD4 (Homo sapiens, UniProt O60885); test: Bromodomain binding assay (Example 6), BRD4-FL
# T3 construct: BRD4-FL: Full length BRD4
# Experimental: as §3, §4
# BRD3-1 = biological target: T4, BRD3-1 (Homo sapiens, UniProt Q15059); test: BET Bromodomain AlphaScreen assay (Example 9), BRD3-1; type: binding
# T4 construct: BRD3-1: Domain 1 of BRD3
# Experimental: as §5, §6, §7, §8
# [4] = Liver microsome stability, human; type: in vitro ADME; conditions: pooled human liver microsomes (50 donors), 1 μM compound, 0.5 mg/ml microsomes, 37° C., read-out: % recovery Human Liver Microsomes (HLM) (30 min)
# Experimental: as §1, §2
# BRD2-1: Domain 1 of BRD2 = biological target: T5, BRD2-1: Domain 1 of BRD2 (Homo sapiens, UniProt P25440); test: Bromodomain binding assay (Example 6), BRD2-1
# T5 construct: BRD2-1: Domain 1 of BRD2
# Experimental: as §3, §4
# BRD2-1 = biological target: T6, BRD2-1 (Homo sapiens, UniProt P25440); test: BET Bromodomain AlphaScreen assay (Example 9), BRD2-1; type: binding
# T6 construct: BRD2-1: Domain 1 of BRD2
# Experimental: as §5, §6, §7, §8
# [5] = MV4-11 xenograft model, tolerance (body weight, clinical signs); type: in vivo; conditions: all dose levels (30 and 50 mg/kg PO)
# Experimental: For routine monitoring, all study animals were monitored not only tumor growth but also behavior such as mobility, food and water consumption (by cage side checking only), body weight (BW), eye/hair matting and any other abnormal effect. Any mortality and/or abnormal clinical signs would be recorded.
# Body weights of all animals were measured twice weekly throughout the study.
# AML2 = test: Oncology cell growth assay, AML2; type: cell-based, human; conditions: Homo sapiens; AML2, AML (acute myeloid leukemia); gIC50, 72 hours
# Experimental: (§9) Human cell lines were cultured in RPMI-1640 containing 10% fetal bovine serum, 1000 viable cells per well were plated in 384-well black flat bottom polystyrene plates (Greiner #781086) in 48 ˜I of culture media. All plates were placed at 5% CO2, 37° C. overnight. The following day one plate was harvested with CeliTiter-Glo (CTG, Promega #G7573) for a time equal to 0 (TO) measurement and compound (20 point titration from 14.7 uM to 7 pM) was added to the remaining plates. The final concentration of DMSO in all wells was 0.15%. Cells were incubated for 72 hours or the indicated time and each plate was developed with CeliTiterGlo reagent using a volume equivalent to the cell culture volume in the wells. Plates were shaken for approximately 2 minutes and chemiluminescent signal was read on the Analyst GT (Molecular Devices) or EnVision Plate Reader (Perkin Elmer).
# (§10) Results are expressed as a percent of the TO and plotted against the compound concentration. The TO value was normalized to 100% and represents the number of cells at time of compound addition and the concentration response data were fit with a 4 parameter curve fit using XLfit software (model 205). […] The Ymin-TO value was determined by subtracting the TO value (100%) from the Ymin value (%) determined from the fit of the concentration response curve. […]
# [6] = system: MV4-11 human AML xenograft; test: MV4-11 subcutaneous human AML xenograft model, efficacy; type: in vivo, NOD SCID mice; conditions: 30 mg/kg and 50 mg/kg, PO
# Experimental: • Species & Strain: NOD SCID mice • Age: 7-8 week • Total Number: 60 mice plus 40% spare • Sex: Female • Body Weight: 18 to 22 g Animal Maintenance
# Groups and treatments started when the mean tumor volume reached 138 mm^3. Based on the tumor volume, mice were randomly assigned to respective groups using a computer-generated randomization procedure.
# Each mouse was inoculated subcutaneously on the right flank with MV4-11 tumor cells ([…]) in 0.1 ml of IMDM without serum for tumor development. The treatment started when the mean tumor size reached approximately 138 mm^3. Mice were randomized into groups.
# During the course of study, the tumor size was measured twice a week in two dimensions using a caliper, and the volume was expressed in mm^3 using the formula: TV=a×b2/2 where a and b were the long and short diameters of the tumor, respectively. The tumor size was then used for T/C and TGI (tumor growth inhibition) values, which were indicators of anti-tumor effectiveness. T/C was calculated with the formula [(Td−T0)/(Cd−C0)]×100%, TGI is calculated with the formula [1−(Td−T0)/(Cd−C0)]×100%. Td and Cd were the mean tumor volumes (or median tumor volumes) of the treated and control animals, and T0 and C0 were the mean tumor volumes of the treated and control animals at the start of the experiment.
# HL60 = test: Oncology cell growth assay, HL60; type: cell-based, human; conditions: Homo sapiens, HL-60; HL60, Promyelocytic leukemia; gIC50, 72 hours
# Experimental: as §9, §10
# SK-OV-3 = test: Oncology cell growth assay, SK-OV-3; type: cell-based, human; conditions: Homo sapiens; SK-OV-3, Ovarian cancer; gIC50, 72 hours
# Experimental: as §9, §10
# TEX = test: Oncology cell growth assay, TEX; type: cell-based, human; conditions: Homo sapiens, AML (acute myeloid leukemia), gIC50, 72 hours
# Experimental: as §9, §10
# MV4-11 = test: Oncology cell growth assay, MV4-11; type: cell-based, human; conditions: Homo sapiens; MV4-11, AML (acute myeloid) leukemia; gIC50, 72 hours
# Experimental: as §9, §10
# RPMI-8226 = test: Oncology cell growth assay, RPMI-8226; type: cell-based, human; conditions: Homo sapiens; RPMI-8226, Multiple myeloma; gIC50, 72 hours
# Experimental: as §9, §10
# MM.1S = test: Oncology cell growth assay, MM.1S; type: cell-based, human; conditions: Homo sapiens, MM1.S, Multiple myeloma, gIC50, 72 hours
# Experimental: as §9, §10
# AR target genes = conditions: AR-positive cells; cited from earlier work
# ABC DLBCL = conditions: combination with drugs targeting B-cell receptor signaling; cited from earlier work
# [7] = system: prostate cancer cell lines with activated AR signaling; conditions: cited from earlier work
# T5 sequence (P25440 74-180 limits assumed): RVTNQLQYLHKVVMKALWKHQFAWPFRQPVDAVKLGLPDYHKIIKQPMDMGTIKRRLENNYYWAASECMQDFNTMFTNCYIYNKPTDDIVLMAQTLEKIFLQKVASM
# T6 sequence (P25440 74-180 limits assumed): as above
# T4 sequence (Q15059 34-140 limits assumed): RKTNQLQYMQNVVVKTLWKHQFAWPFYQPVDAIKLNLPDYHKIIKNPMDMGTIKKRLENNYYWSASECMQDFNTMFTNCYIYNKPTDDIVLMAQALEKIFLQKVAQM
# T1 sequence (Q15059 34-140 limits assumed): as above
Compound,"recovery at 30 min, 1 μM [1]",IC50 (BRD3-1: Domain 1 of BRD3),EC50 (BRD4-FL),IC50 [3],EC50 (BRD3-1),"recovery at 30 min, 1 μM [4]",IC50 (BRD2-1: Domain 1 of BRD2),EC50 (BRD2-1),further results
COc1cc2c(cc1-c1c(C)noc1C)ncc1[nH]c(=O)n([C@H](C)c3ccccn3)c12 [I-BET151],,,,,,,,,GBM cell proliferation (GBM cell): reduced GBM cell proliferation in vitro and in vivo
"COc1cc2c(cc1-c1c(C)noc1C)ncc1nc(C3CCOCC3)n([C@H](C)COC(F)F)c12 [2(g), 4-[1-[(1R)-2-(difluoromethoxy)-1-methyl-ethyl]-8-methoxy-2-tetrahydropyran-4-yl-imidazo[4,5-c]quinolin-7-yl]-3,5-dimethyl-isoxazole]",55.5%,17 nM,7.17 nM,14 nM,2.76 nM,43%,24 nM,6.89 nM,"tumor volume ([2]; 10 mg/kg, 30 mg/kg and 60 mg/kg PO QD × 21, 21 days post administration, dose dependent): significantly reduced the tumor volume; tumor volume compared with carfilzomib (CFZ) ([2]; 30 mg/kg and 60 mg/kg PO, 21 days post administration, CFZ 5 mg/kg IV): reduced the tumor volume to a greater extent than carfilzomib; antitumor activity ([2]; low-dose 10 mg/kg PO): moderate antitumor activity"
"COc1cc2c(cc1-c1c(C)noc1C)ncc1nc(C3CC3)n([C@H](C)COC(F)F)c12.Cl [2(l), 4-[2-cyclopropyl-1-[(1R)-2-(difluoromethoxy)-1-methyl-ethyl]-8-methoxy-imidazo[4,5-c]quinolin-7-yl]-3,5-dimethyl-isoxazole hydrochloride]",3%,21 nM,33.1 nM,33 nM,20.7 nM,43.6%,42 nM,42.2 nM,tolerance [5]: tolerated well; IC50 (AML2): 15 ± 1 nM; antitumor activity [6]: significant antitumor activity; IC50 (HL60): 179 ± 10 nM; IC50 (SK-OV-3): 360 ± 10 nM; IC50 (TEX): 52 ± 73 nM; IC50 (MV4-11): 156 ± 43 nM; IC50 (RPMI-8226): 109 ± 32 nM; IC50 (MM.1S): 94 ± 14 nM
"COc1cc2c(cc1-c1c(C)noc1C)ncc1nc(C3CCC(F)(F)CC3)n([C@H](C)COC(F)F)c12 [2(h), 4-[2-(4,4-difluorocyclohexyl)-1-[(1R)-2-(difluoromethoxy)-1-methyl-ethyl]-8-methoxy-imidazo[4,5-c]quinolin-7-yl]-3,5-dimethyl-isoxazole]",35.2%,31 nM,46.2 nM,21 nM,6.96 nM,62.3%,47 nM,27.3 nM,
Cc1sc2c(c1C)C(c1ccc(Cl)cc1)=N[C@@H](CC(=O)OC(C)(C)C)c1nnc(C)n1-2 [JQ-1],,,,,,,,,levels of transcription of AR target genes (AR target genes): globally reduced the levels of transcription of AR target genes; drug-drug synergy (ABC DLBCL): combined favorably with multiple drugs targeting B-cell receptor signaling; apoptosis and cell cycle arrest [7]: sensitive to JQ1-induced apoptosis and cell cycle arrest
